Experimental data: patent publication US20220153745A1, “DISUBSTITUTED BENZOTHIENYL-PYRROLOTRIAZINES AND THEIR USE AS FGFR KINASE INHIBITORS” (Bayer Intellectual Property GmbH, priority 2011, published 2022)
Counter-ions that a name gives are not always drawn.

Target: T1, mTOR (Homo sapiens, UniProt P42345)
T1 construct: human mTOR amino acids from 1360 to 2549; purchased Invitrogen 4753; host or cells: insect cells
Experiment: mTOR kinase assay (TR-FRET, for comparative purposes)
Type: biochemical
Settings: for inhibition at 1 µM: read-out: mTOR % inhibition @ 1 μM, mean inhibition at 1 μM test compound, 40 μM ATP

T1 sequence (P42345 1360-2549): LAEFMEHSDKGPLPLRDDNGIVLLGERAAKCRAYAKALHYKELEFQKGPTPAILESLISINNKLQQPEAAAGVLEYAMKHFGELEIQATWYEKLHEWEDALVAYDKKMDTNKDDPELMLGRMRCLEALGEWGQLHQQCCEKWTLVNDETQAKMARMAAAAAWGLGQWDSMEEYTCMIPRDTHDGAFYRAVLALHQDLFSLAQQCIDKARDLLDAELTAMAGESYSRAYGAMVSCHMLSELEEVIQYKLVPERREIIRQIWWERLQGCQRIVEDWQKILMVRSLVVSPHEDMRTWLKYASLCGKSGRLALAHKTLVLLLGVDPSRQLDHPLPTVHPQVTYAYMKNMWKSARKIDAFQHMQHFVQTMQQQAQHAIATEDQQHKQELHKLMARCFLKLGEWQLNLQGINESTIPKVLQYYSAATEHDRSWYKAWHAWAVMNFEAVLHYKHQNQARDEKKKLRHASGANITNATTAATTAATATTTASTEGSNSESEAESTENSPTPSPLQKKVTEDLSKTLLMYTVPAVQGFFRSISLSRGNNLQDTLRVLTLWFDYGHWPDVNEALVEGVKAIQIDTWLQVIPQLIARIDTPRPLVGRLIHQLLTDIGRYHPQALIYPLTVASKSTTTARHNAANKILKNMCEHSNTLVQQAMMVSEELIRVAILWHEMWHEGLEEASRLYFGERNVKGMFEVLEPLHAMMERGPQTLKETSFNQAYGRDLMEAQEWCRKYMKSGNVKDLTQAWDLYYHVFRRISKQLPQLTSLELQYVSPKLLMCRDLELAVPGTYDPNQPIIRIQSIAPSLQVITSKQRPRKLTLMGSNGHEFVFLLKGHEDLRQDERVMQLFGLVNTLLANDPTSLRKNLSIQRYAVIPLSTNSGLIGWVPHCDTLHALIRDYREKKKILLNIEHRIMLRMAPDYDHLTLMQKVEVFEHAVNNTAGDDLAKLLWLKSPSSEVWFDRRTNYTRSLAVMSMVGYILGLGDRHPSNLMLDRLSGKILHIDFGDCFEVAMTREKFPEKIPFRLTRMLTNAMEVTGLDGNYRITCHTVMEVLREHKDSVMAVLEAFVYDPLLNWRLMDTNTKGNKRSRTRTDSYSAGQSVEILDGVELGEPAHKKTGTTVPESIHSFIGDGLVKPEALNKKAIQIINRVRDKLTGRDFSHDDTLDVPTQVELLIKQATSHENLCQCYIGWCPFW

SMILES | inhibition at 1 µM [%] | mTOR % inhibition @ 1 μM (mean inhibition at 1 μM test compound, 40 μM ATP) [%]
COc1cc(C)cc2cc(-c3c(CN4CCCC(O)C4)c(CN4CCNCC4)n4ncnc(N)c34)sc12 (racemic) [Example 40, rac-1-{[4-Amino-5-(7-methoxy-5-methyl-1-benzothiophen-2-yl)-7-(piperazin-1-ylmethyl)pyrrolo[2,1-f][1,2,4]triazin-6-yl]methyl}piperidin-3-ol trihydrochloride] | 0.1 | –
COCc1c(-c2cc3cc(C)cc(OC)c3s2)c2c(N)ncnn2c1CN1CCNC(=O)C1 [Example 1, 4-{[4-Amino-6-(methoxymethyl)-5-(7-methoxy-5-methyl-1-benzothiophen-2-yl)pyrrolo[2,1-f]-[1,2,4]triazin-7-yl]methyl}piperazin-2-one] | 8.7 | –
COCc1c(-c2cc3cc(C)cc(OC)c3s2)c2c(N)ncnn2c1CN1CCNC(=O)C1.Cl.Cl [Example 2, 4-{[4-Amino-6-(methoxymethyl)-5-(7-methoxy-5-methyl-1-benzothiophen-2-yl)pyrrolo[2,1-f][1,2,4]triazin-7-yl]methyl}piperazin-2-one dihydrochloride] | – | 7.2
CCOCc1c(-c2cc3cc(C)cc(OC)c3s2)c2c(N)ncnn2c1CN1CCNC(=O)C1 [Example 5, 4-{[4-Amino-6-(ethoxymethyl)-5-(7-methoxy-5-methyl-1-benzothiophen-2-yl)pyrrolo[2,1-f][1,2,4]-triazin-7-yl]methyl}piperazin-2-one] | 9.7 | –
CCOCc1c(-c2cc3cc(C)cc(OC)c3s2)c2c(N)ncnn2c1CN1CCNC(=O)C1 [Example 6, 4-{[4-Amino-6-(ethoxymethyl)-5-(7-methoxy-5-methyl-1-benzothiophen-2-yl)pyrrolo[2,1-f][1,2,4]-triazin-7-yl]methyl}piperazin-2-one dihydrochloride] | 0.3 | –
CCOCc1c(-c2cc3cc(C)cc(OC)c3s2)c2c(N)ncnn2c1CN[C@@H]1CCNC1=O [Example 7, (3R)-3-({[4-Amino-6-(ethoxymethyl)-5-(7-methoxy-5-methyl-1-benzothiophen-2-yl)pyrrolo[2,1-f]-[1,2,4]triazin-7-yl]methyl}amino)pyrrolidin-2-one dihydrochloride] | 3.1 | –
CCOCc1c(-c2cc3cc(C)cc(OC)c3s2)c2c(N)ncnn2c1CN[C@@H]1CCNC1=O [Example 8, (3R)-3-({[4-Amino-6-(ethoxymethyl)-5-(7-methoxy-5-methyl-1-benzothiophen-2-yl)pyrrolo[2,1-f]-[1,2,4]triazin-7-yl]methyl}amino)pyrrolidin-2-one] | 7.8 | –
CCOCc1c(-c2cc3cc(C)cc(OC)c3s2)c2c(N)ncnn2c1CN1CCOCC1 [Example 10, 6-(Ethoxymethyl)-5-(7-methoxy-5-methyl-1-benzothiophen-2-yl)-7-(morpholin-4-ylmethyl)pyrrolo[2,1-f][1,2,4]triazin-4-amine] | 6 | –
COc1cc(C)cc2cc(-c3c(CO)c(CN4CCNCC4)n4ncnc(N)c34)sc12 [Example 12, [4-Amino-5-(7-methoxy-5-methyl-1-benzothiophen-2-yl)-7-(piperazin-1-ylmethyl)pyrrolo[2,1-f]-[1,2,4]triazin-6-yl]methanol bis(formiate)] | 25.8 | –
COCc1c(-c2cc3cc(C)cc(OC)c3s2)c2c(N)ncnn2c1CN1CCNCC1 [Example 17, 6-(Methoxymethyl)-5-(7-methoxy-5-methyl-1-benzothiophen-2-yl)-7-(piperazin-1-ylmethyl)pyrrolo[2,1-f][1,2,4]triazin-4-amine formiate] | 6.7 | –
CCOCc1c(-c2cc3cc(C)cc(OC)c3s2)c2c(N)ncnn2c1CN1CCNCC1 [Example 19, 6-(Ethoxymethyl)-5-(7-methoxy-5-methyl-1-benzothiophen-2-yl)-7-(piperazin-1-ylmethyl)pyrrolo[2,1-f][1,2,4]triazin-4-amine dihydrochloride] | 17.6 | –
